Assay results from patent US12457954B2, “Sorghum plants having a mutant polynucleotide encoding the large subunit of mutated acetohydroxyacid synthase protein and increased resistance to herbicides” (Advanta Holdings BV, priority 2012, dated 2025).

Tests used:
Format in all cases: in vivo, Sorghum bicolor
[1] = tested on: ADV-IMI-R mutant Sorghum line; test: Field spraying with imidazolinone herbicides, dry matter of aerial tissues, resistant mutant; conditions: for DM % Control: ADV-IMI-R, 10 days after spraying, mean of 3 experiments; for Response of ADV-IMI-R mutant to herbicide: field spraying, even at a rate of 4×
Description: (§1) Subsequently, the effect to herbicide spraying on mutant imidazolinone-resistant plants ADV-IMI-R (original mutation) was compared to the response of endogamic Sorghum line 80237 (Advanta proprietary elite line). To that end, plants were treated on the field with three herbicides belonging to the imidazolinone family: imazethapyr, imazapir, and imazapic. Four different rates were assayed: 1×, 2×, 3×, and 4× for each of the herbicides.
(§2) Ten days after spraying, all plants were assayed for dry matter (DM) in aerial tissues.
(§3) The response of the ADV-IMI-R mutant of the invention was compared to that of endogamic line 80237. […] The disclosed values are the average of three experiments.
(§4) Sorghum line 80237 (Advanta's proprietary elite line) and imidazolinone-resistant ADV-IMI-R mutant of the present invention (original mutation) were sprayed on the field with three herbicides from the group of imidazolinones: imazethapyr, imazapyr, and imazapic. Four different rates were assayed for each of the herbicides: 1×, 2×, 3×, and 4× (being 1× the recommended application rate) (see Table 1 above):
(§5) Field experiments were carried out in Venado Tuerto, and planting took place on Dec. 1, 2010. The herbicide was sprayed 20 days after emergence (stage V6). All treatments were compared to their respective untreated controls. The experimental design consisted of plots divided into 3 replicates (main plot: treatment with herbicide; sub-plots: line).
(§6) Ten days after spraying, all plants were assayed for dry matter (DM) in aerial tissues. Herbicide response was assessed as a DM percentage in aerial tissue of the respective untreated control.
(§7) Thus, the line sensitive to herbicides i for each rate j was expressed as:
(§8) [formula] • DMij % Control is the mean value of 3 experiments for each treatment from each line.

[2] = tested on: endogamic Sorghum line 80237; test: Field spraying with imidazolinone herbicides, dry matter of aerial tissues, wild-type line; conditions: 10 days after spraying, mean of 3 experiments
Description: as §1, §2, §3, §4, §5, §6, §7, §8

[3] = tested on: ADV-IMI-R × 90523 F2 progeny; test: Phenotypic rating of segregating F2 population after spraying with imazethapyr; conditions: rate 3X
Description: Inheritance of resistance to imidazolinones, for example imazethapyr, was assessed in a segregating F2 Sorghum population generated by crossing an imazethapyr susceptible line with the ADV-IMI-R mutant. The F2 plants thus obtained were sprayed with imazethapyr (Pivot®, BASF) at a rate of 3×, 20 days in stage V6 after emergence and phenotypic symptoms were assessed 10 days after treatment.
The correlation between resistance phenotypes and the number of mutant alleles was analyzed using the SNP-SbAHAS marker. To that end, chlorosis and death phenotypes of individual plants from the F2 progeny (ADV-IMI-R×90523) were studied after spraying with imazethapyr. Concomitantly, the genotype of the SNP-SbAHAS marker was studied. The correlation between the molecular marker SNP-SbAHAS and resistance to imazethapyr (measured as a rating of phenotypes) was determined using the Chi-square Independence test.
A targeted crossing was carried out between Sorghum line 90523 (Advanta proprietary elite line, susceptible to imidazolinones) and the imidazolinone-resistant ADV-IMI-R mutant (VT09-9754-48-6-BK selection). The resulting F1 plants were auto-pollinated and F2 seeds were harvested. The F2 seeds were planted in the field in Venado Tuerto, in October 2010. The F2 plants (177 plants) were sprayed with imazethapyr (Pivot®, BASF) at a rate of 3× (where 1× is the rate recommended by the manufacturer for commercial use which is equivalent to 100 ml a.i./ha). Before spraying, leaf tissue from each of the 177 F2 plants from both ADV-IMI-R mutant (VT09-9754-48-6-BK selection) and wild-type line 90523 were collected to isolate genomic DNA, which was resuspended in water at a final concentration of 100 ng/μl for use in genotypic analysis.
Herbicide was sprayed 20 days after emergence (stage V6). The plants were assessed ten days after spraying, and the herbicidal effect was classified into three categories by visually assessed symptoms according to the following phenotypic scoring: • 1=no damage • 2=chlorotic • 3=death
Individual F2 progeny plants obtained by a ADV-IMI-R×90523 crossing were phenotypically classified (no damage, chlorosis and death) after spraying with imazethapyr (using the method of Example 4) and then genotypically classified using the molecular marker SNP-SbAHAS which is specific of the induced mutation in AHAS (using the method described in Example 5).

[4] = 10 days after treatment, 177 F2 plants

Row | SMILES | DM % Control ([1]; rate 1X) | DM % Control ([1]; rate 2X) | DM % Control ([1]; rate 3X) | DM % Control ([1]; rate 4X) | Response of ADV-IMI-R mutant to herbicide [1] | DM % Control ([2]; rate 1X) | DM % Control ([2]; rate 2X) | DM % Control ([2]; rate 3X) | DM % Control ([2]; rate 4X) | Amount of F2 progeny, phenotype Chlorotic (rating 2) [3, 4] | Amount of F2 progeny, phenotype Death (rating 3) [3, 4] | Amount of F2 progeny, phenotype No damage (rating 1) [3, 4] | Amount of F2 individuals, genotype A/G, phenotype Chlorotic ([3]; heterozygous) | Amount of F2 individuals, genotype A/G, phenotype No damage ([3]; heterozygous) | Amount of F2 individuals, genotype A/A, phenotype Chlorotic ([3]; homozygous AHAS mutant) | Amount of F2 individuals, genotype A/A, phenotype No damage ([3]; homozygous AHAS mutant) | Amount of F2 individuals, genotype G/G, phenotype Death ([3]; wild-type homozygous)
1 | Cc1cnc(C2=NC(=O)C(C)(C(C)C)N2)c(C(=O)O)c1 (centres unmarked) [Imazapic] | 161% | 123% | 244% | 272% | resistant | 22% | 13% | 15% | 28% |  |  |  |  |  |  |  | 
2 | CC(C)C1(C)N=C(c2ncccc2C(=O)O)NC1=O (centres unmarked) [Imazapyr] | 139% | 140% | 235% | 191% | resistant | 14% | 21% | 14% | 19% |  |  |  |  |  |  |  | 
3 | CCc1cnc(C2=NC(C)(C(C)C)C(=O)N2)c(C(=O)O)c1 (centres unmarked) [Imazethapyr] | 162% | 175% | 263% | 273% | resistant | 17% | 12% | 14% | 23% | 84 | 43 | 50 | 83 | 13 | 1 | 37 | 43
